Results from patent publication US20260092071A1, “COMPOUNDS AND COMPOSITIONS AS SMARCA2/4 DEGRADERS AND USES THEREOF” (REGENTS OF THE UNIVERSITY OF MICHIGAN, priority 2022, published 2026).

Key:
SMARCA2 = SMARCA2 (Homo sapiens, UniProt P51531); assay: HiBit assay in engineered HT1080 CRISPR knock-in cell, 6 hrs (B series), SMARCA2; format: cell-based; settings: 6 hrs incubation; for DC50: HT1080 CRISPR knock-in cells, read-out: SMARC A2 HT1080 HiBit DC50; for Dmax: HT-1080, HT1080 CRISPR knock-in cells, read-out: SMARC A2 HT1080 HiBit Dmax (%)
SMARCA2, sequence (P51531 whole entry): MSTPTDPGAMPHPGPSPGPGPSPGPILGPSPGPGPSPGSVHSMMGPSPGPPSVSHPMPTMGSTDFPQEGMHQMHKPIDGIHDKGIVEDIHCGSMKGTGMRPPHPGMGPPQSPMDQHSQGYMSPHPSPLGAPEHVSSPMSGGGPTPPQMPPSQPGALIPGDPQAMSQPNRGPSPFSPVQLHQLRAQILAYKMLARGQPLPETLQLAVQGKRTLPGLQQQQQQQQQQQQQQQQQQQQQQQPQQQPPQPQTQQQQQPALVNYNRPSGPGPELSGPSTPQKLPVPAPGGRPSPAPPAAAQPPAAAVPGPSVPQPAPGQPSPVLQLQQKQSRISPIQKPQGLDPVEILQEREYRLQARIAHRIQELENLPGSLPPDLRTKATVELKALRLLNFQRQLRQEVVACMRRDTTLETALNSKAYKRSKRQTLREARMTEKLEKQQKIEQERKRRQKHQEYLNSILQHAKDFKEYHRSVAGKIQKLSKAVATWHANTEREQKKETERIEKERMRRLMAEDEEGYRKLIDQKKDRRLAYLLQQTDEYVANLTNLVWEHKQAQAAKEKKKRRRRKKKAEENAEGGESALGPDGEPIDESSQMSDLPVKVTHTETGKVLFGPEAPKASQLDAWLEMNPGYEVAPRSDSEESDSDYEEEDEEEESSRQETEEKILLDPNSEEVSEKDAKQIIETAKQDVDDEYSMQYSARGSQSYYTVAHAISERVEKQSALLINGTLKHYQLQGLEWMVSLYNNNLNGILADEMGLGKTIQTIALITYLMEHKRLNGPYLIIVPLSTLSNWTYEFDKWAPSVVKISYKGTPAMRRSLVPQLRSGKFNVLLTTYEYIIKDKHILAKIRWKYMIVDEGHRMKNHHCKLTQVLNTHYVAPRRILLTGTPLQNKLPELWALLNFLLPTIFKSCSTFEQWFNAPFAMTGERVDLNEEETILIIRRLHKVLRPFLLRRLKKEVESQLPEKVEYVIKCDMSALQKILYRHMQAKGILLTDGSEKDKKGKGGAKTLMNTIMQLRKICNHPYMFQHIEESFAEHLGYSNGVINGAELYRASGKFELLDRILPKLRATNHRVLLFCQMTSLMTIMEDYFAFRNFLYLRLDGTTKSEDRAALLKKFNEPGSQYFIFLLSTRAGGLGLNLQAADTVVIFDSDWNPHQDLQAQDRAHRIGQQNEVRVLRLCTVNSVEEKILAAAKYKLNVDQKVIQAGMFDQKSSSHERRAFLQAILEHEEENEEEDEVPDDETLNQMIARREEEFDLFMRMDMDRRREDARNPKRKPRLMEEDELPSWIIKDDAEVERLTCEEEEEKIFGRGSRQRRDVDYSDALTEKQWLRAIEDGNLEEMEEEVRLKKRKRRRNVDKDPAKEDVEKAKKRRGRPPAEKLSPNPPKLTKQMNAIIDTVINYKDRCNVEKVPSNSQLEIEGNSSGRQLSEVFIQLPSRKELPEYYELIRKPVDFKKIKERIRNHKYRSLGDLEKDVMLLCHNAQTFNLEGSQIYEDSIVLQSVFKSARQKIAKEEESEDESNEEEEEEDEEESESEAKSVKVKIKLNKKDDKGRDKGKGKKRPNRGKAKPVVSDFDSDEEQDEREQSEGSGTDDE
In short: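 Protein abundance is measured in HiBiT-tagged HT1080 CRISPR knock-in cells after a 6 hr compound treatment (0.1% DMSO) by lytic Nano-Glo HiBiT luminescence.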

SMARCA4 = SMARCA4 (Homo sapiens, UniProt P51532); assay: HiBit assay in engineered HT1080 CRISPR knock-in cell, 6 hrs (B series), SMARCA4; format: cell-based; settings: 6 hrs incubation; for DC50: HT1080 CRISPR knock-in cells, read-out: SMARC A4 HT1080 HiBit DC50; for Dmax: HT-1080, HT1080 CRISPR knock-in cells, read-out: SMARC A4 HT1080 HiBit Dmax(%)
SMARCA4, sequence (P51532 whole entry): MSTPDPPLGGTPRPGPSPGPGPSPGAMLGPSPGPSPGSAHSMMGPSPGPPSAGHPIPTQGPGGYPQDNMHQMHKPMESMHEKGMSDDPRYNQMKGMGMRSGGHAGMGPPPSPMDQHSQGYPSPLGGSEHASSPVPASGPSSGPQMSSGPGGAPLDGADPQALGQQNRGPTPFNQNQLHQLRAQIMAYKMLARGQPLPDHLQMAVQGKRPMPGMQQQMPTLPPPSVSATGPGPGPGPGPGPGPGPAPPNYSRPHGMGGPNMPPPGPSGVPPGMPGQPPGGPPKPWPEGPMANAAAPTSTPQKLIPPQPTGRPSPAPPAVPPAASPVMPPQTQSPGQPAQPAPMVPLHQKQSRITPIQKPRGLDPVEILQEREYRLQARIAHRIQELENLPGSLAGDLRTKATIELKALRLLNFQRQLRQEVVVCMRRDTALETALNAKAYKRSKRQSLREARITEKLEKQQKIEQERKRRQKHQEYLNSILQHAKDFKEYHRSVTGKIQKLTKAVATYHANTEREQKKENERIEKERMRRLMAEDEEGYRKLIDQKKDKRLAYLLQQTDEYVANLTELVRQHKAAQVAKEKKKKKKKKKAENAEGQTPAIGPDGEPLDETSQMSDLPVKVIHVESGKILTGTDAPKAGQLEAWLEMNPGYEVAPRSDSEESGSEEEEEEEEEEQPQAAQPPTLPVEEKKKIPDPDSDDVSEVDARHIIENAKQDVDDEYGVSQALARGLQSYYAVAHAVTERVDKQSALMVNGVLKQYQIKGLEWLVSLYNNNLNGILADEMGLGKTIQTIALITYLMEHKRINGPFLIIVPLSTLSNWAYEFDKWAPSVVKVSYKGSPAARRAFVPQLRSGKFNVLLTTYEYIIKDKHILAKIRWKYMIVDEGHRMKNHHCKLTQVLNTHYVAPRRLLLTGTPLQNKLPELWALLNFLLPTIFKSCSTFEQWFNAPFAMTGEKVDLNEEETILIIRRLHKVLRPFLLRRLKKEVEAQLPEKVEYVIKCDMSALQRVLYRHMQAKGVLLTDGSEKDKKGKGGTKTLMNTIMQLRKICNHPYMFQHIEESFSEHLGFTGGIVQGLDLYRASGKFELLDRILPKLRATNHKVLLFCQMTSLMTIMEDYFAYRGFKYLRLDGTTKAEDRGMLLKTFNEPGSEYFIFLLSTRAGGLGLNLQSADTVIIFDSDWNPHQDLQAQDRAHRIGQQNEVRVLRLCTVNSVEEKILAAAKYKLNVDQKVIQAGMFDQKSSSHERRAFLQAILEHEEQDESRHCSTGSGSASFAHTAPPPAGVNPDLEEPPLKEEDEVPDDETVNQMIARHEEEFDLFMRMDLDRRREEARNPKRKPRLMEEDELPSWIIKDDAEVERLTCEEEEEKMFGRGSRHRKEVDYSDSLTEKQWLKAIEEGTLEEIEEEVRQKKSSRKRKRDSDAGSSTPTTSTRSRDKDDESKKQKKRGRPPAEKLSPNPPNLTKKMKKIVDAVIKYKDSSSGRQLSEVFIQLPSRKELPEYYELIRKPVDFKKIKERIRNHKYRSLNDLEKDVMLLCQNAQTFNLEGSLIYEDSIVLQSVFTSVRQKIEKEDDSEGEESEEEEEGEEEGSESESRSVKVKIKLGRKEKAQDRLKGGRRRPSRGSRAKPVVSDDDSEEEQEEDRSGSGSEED
In short: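 HT1080 CRISPR knock-in cells carrying the HiBiT tag were seeded onto compounds (final DMSO 0.1%) and incubated 6 hrs at 37° C, 5% CO2. Remaining tagged protein was detected by lytic HiBiT luminescence after adding LgBiT protein and substrate, with LgBiT-free wells serving as negative control.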

| Structure (SMILES) | DC50 (SMARCA2) [µM] | Dmax (SMARCA2) [%] | DC50 (SMARCA4) [µM] | Dmax (SMARCA4) [%] |
| --- | --- | --- | --- | --- |
| Cc1ncsc1-c1ccc([C@H](C)NC(=O)[C@@H]2C[C@@H](O)CN2C(=O)[C@@H](c2cc(OCCN3CCC(c4ccc5c(c4)-n4c(nc(=O)c6c(Cl)cccc64)C5(C)C)CC3)no2)C(C)C)cc1 [Compound B32, (2S,4R)-1-((R)-2-(3-(2-(4-(4-chloro-7,7-dimethyl-5-oxo-5,7-dihydroindolo[1,2-a]quinazolin-10-yl)piperidin-1-yl)ethoxy)isoxazol-5-yl)-3-methylbutanoyl)-4-hydroxy-N-((S)-1-(4-(4-methylthiazol-5-yl)phenyl)ethyl)pyrrolidine-2-carboxamide] | < 0.1 | > 90 | < 0.1 | < 50 |
| Cc1ncsc1-c1ccc([C@H](CC(=O)NCCCCN2CCC(c3ccc4c(c3)-n3c(nc(=O)c5c(Cl)cccc53)C4(C)C)CC2)NC(=O)[C@@H]2C[C@@H](O)CN2C(=O)[C@@H](NC(=O)C2(F)CC2)C(C)(C)C)cc1 [Compound B33, (2S,4R)—N—((S)-3-((4-(4-(4-chloro-7,7-dimethyl-5-oxo-5,7-dihydroindolo[1,2-a]quinazolin-10-yl)piperidin-1-yl)butyl)amino)-1-(4-(4-methylthiazol-5-yl)phenyl)-3-oxopropyl)-1-((S)-2-(1-fluorocyclopropane-1-carboxamido)-3,3-dimethylbutanoyl)-4-hydroxypyrrolidine-2-carboxamide] | > 1 | < 50 | > 1 | < 50 |
| Cc1ncsc1-c1ccc(CNC(=O)[C@@H]2C[C@@H](O)CN2C(=O)[C@@H](NC(=O)C2(F)CC2)C(C)(C)C)c(OCCN2CCC(c3ccc4c(c3)-n3c(nc(=O)c5c(Cl)cccc53)C4(C)C)CC2)c1 [Compound B34, (2S,4R)-N-(2-(2-(4-(4-chloro-7,7-dimethyl-5-oxo-5,7-dihydroindolo[1,2-a]quinazolin-10-yl)piperidin-1-yl)ethoxy)-4-(4-methylthiazol-5-yl)benzyl)-1-((S)-2-(1-fluorocyclopropane-1-carboxamido)-3,3-dimethylbutanoyl)-4-hydroxypyrrolidine-2-carboxamide] | < 0.1 | > 90 | < 0.1 | > 90 |
| Cc1ncsc1-c1ccc(CNC(=O)[C@@H]2C[C@@H](O)CN2C(=O)[C@@H](NC(=O)C2(F)CC2)C(C)(C)C)c(OCCCCN2CCC(c3ccc4c(c3)-n3c(nc(=O)c5c(Cl)cccc53)C4(C)C)CC2)c1 [Compound B35, (2S,4R)—N-(2-(4-(4-(4-chloro-7,7-dimethyl-5-oxo-5,7-dihydroindolo[1,2-a]quinazolin-10-yl)piperidin-1-yl)butoxy)-4-(4-methylthiazol-5-yl)benzyl)-1-((S)-2-(1-fluorocyclopropane-1-carboxamido)-3,3-dimethylbutanoyl)-4-hydroxypyrrolidine-2-carboxamide] | < 0.1 | > 90 | < 0.1 | > 90 |
| Cc1ncsc1-c1ccc([C@H](C)NC(=O)[C@@H]2C[C@@H](O)CN2C(=O)[C@H](C(C)C)n2cc(CCN3CCC(c4ccc5c(c4)-n4c(nc(=O)c6c(Cl)cccc64)C5(C)C)CC3)nn2)cc1 [Compound B36, (2S,4R)-1-((S)-2-(4-(2-(4-(4-chloro-7,7-dimethyl-5-oxo-5,7-dihydroindolo[1,2-a]quinazolin-10-yl)piperidin-1-yl)ethyl)-1H-1,2,3-triazol-1-yl)-3-methylbutanoyl)-4-hydroxy-N-((S)-1-(4-(4-methylthiazol-5-yl)phenyl)ethyl)pyrrolidine-2-carboxamide] | < 0.1 | 70 to 90 | < 0.1 | < 50 |
| Cc1ncsc1-c1ccc([C@H](C)NC(=O)[C@@H]2C[C@@H](O)CN2C(=O)[C@@H](c2cc(N3CCC(CN4CCC(c5ccc6c(c5)-n5c(nc(=O)c7c(Cl)cccc75)C6(C)C)CC4)CC3)no2)C(C)C)cc1 [Compound B37, (2S,4R)-1-((R)-2-(3-(4-((4-(4-chloro-7,7-dimethyl-5-oxo-5,7-dihydroindolo[1,2-a]quinazolin-10-yl)piperidin-1-yl)methyl)piperidin-1-yl)isoxazol-5-yl)-3-methylbutanoyl)-4-hydroxy-N-((S)-1-(4-(4-methylthiazol-5-yl)phenyl)ethyl)pyrrolidine-2-carboxamide] | < 0.1 | > 90 | < 0.1 | 70 to 90 |
| Cc1ncsc1-c1ccc([C@H](C)NC(=O)[C@@H]2C[C@@H](O)CN2C(=O)[C@@H](c2cc(OC3CCC(CN4CCC(c5ccc6c(c5)-n5c(nc(=O)c7c(Cl)cccc75)C6(C)C)CC4)CC3)no2)C(C)C)cc1 (stereo partly drawn) [Compound B38, (2S,4R)-1-((R)-2-(3-((4-((4-(4-chloro-7,7-dimethyl-5-oxo-5,7-dihydroindolo[1,2-a]quinazolin-10-yl)piperidin-1-yl)methyl)cyclohexyl)oxy)isoxazol-5-yl)-3-methylbutanoyl)-4-hydroxy-N-((S)-1-(4-(4-methylthiazol-5-yl)phenyl)ethyl)pyrrolidine-2-carboxamide] | < 0.1 | > 90 | < 0.1 | 70 to 90 |
| Cc1ncsc1-c1ccc(CNC(=O)[C@@H]2C[C@@H](O)CN2C(=O)[C@@H](NC(=O)C2(F)CC2)C(C)(C)C)c(OCCCN2CCC(c3ccc4c(c3)-n3c(nc(=O)c5c(Cl)cccc53)C4(C)C)CC2)c1 [Compound B39, (2S,4R)-N-(2-(3-(4-(4-chloro-7,7-dimethyl-5-oxo-5,7-dihydroindolo[1,2-a]quinazolin-10-yl)piperidin-1-yl)propoxy)-4-(4-methylthiazol-5-yl)benzyl)-1-((S)-2-(1-fluorocyclopropane-1-carboxamido)-3,3-dimethylbutanoyl)-4-hydroxypyrrolidine-2-carboxamide] | < 0.1 | > 90 | < 0.1 | > 90 |
| Cc1ncsc1-c1ccc([C@H](C)NC(=O)[C@@H]2C[C@@H](O)CN2C(=O)[C@@H](NC(=O)[C@H]2CC[C@H](CN3CCC(c4ccc5c(c4)-n4c(nc(=O)c6c(Cl)cccc64)C5(C)C)CC3)CC2)C(C)(C)C)cc1 [Compound B40, (2S,4R)-1-((S)-2-((1r,4S)-4-((4-(4-chloro-7,7-dimethyl-5-oxo-5,7-dihydroindolo[1,2-a]quinazolin-10-yl)piperidin-1-yl)methyl)cyclohexane-1-carboxamido)-3,3-dimethylbutanoyl)-4-hydroxy-N-((S)-1-(4-(4-methylthiazol-5-yl)phenyl)ethyl)pyrrolidine-2-carboxamide] | < 0.1 | > 90 | 0.1 to 0.5 | < 50 |
| Cc1ncsc1-c1ccc([C@H](C)NC(=O)[C@@H]2C[C@@H](O)CN2C(=O)[C@H](C(C)C)n2cc([C@H]3CC[C@H](CN4CCC(c5ccc6c(c5)-n5c(nc(=O)c7c(Cl)cccc75)C6(C)C)CC4)CC3)nn2)cc1 [Compound B41, (2S,4R)-1-((S)-2-(4-((1r,4S)-4-((4-(4-chloro-7,7-dimethyl-5-oxo-5,7-dihydroindolo[1,2-a]quinazolin-10-yl)piperidin-1-yl)methyl)cyclohexyl)-1H-1,2,3-triazol-1-yl)-3-methylbutanoyl)-4-hydroxy-N-((S)-1-(4-(4-methylthiazol-5-yl)phenyl)ethyl)pyrrolidine-2-carboxamide] | < 0.1 | > 90 | < 0.1 | 70 to 90 |
| Cc1ncsc1-c1ccc([C@H](C)NC(=O)[C@@H]2C[C@@H](O)CN2C(=O)C(c2cc(N3CCC(c4ccc5c(c4)C(C)(C)c4nc(=O)c6c(Cl)cccc6n4-5)CC3)no2)C(C)C)cc1 (stereo partly drawn) [Compound B42, (2S,4R)-1-(2-(3-(4-(4-chloro-7,7-dimethyl-5-oxo-5,7-dihydroindolo[1,2-a]quinazolin-9-yl)piperidin-1-yl)isoxazol-5-yl)-3-methylbutanoyl)-4-hydroxy-N—((S)-1-(4-(4-methylthiazol-5-yl)phenyl)ethyl)pyrrolidine-2-carboxamide] | < 0.1 | > 90 | < 0.1 | 70 to 90 |
| Cc1ncsc1-c1ccc([C@H](C)NC(=O)[C@@H]2C[C@@H](O)CN2C(=O)[C@@H](NC(=O)CCN2CCC(c3ccc4c(c3)-n3c(nc(=O)c5c(Cl)cccc53)C4(C)C)CC2)C(C)(C)C)cc1 [Compound B43, (2S,4R)-1-((S)-2-(3-(4-(4-chloro-7,7-dimethyl-5-oxo-5,7-dihydroindolo[1,2-a]quinazolin-10-yl)piperidin-1-yl)propanamido)-3,3-dimethylbutanoyl)-4-hydroxy-N—((S)-1-(4-(4-methylthiazol-5-yl)phenyl)ethyl)pyrrolidine-2-carboxamide] | 0.1 to 0.5 | 50 to 69 | > 1 | < 50 |
| Cc1ncsc1-c1ccc([C@H](CC(=O)NCCN2CCC(c3ccc4c(c3)-n3c(nc(=O)c5c(Cl)cccc53)C4(C)C)CC2)NC(=O)[C@@H]2C[C@@H](O)CN2C(=O)[C@@H](NC(=O)C2(F)CC2)C(C)(C)C)cc1 [Compound B44, (2S,4R)-N-((S)-3-((2-(4-(4-chloro-7,7-dimethyl-5-oxo-5,7-dihydroindolo[1,2-a]quinazolin-10-yl)piperidin-1-yl)ethyl)amino)-1-(4-(4-methylthiazol-5-yl)phenyl)-3-oxopropyl)-1-((S)-2-(1-fluorocyclopropane-1-carboxamido)-3,3-dimethylbutanoyl)-4-hydroxypyrrolidine-2-carboxamide] | 0.1 to 0.5 | < 50 | 0.1 to 0.5 | < 50 |
